Assays:
[1] = system: microglia in CORT of Wt and iTat mice; experiment: Iba-1 immunohistochemistry (DAB), microglia morphology in CORT; format: in vivo, mouse; conditions: PAM-treated iTat mice
Procedure: Mice were anesthetized using avertin (tribromoethanol) and transcardially perfused with first phosphate-buffered saline (PBS) and then 4% paraformaldehyde (PFA). Then, the brains were dissected out, fixed in 4% PFA at 4° C. overnight, dehydrated in 30% sucrose, embedded in OCT, sagittally sectioned (20 μm) using a cryostat, and preserved in a cryoprotectant containing 30% ethylene glycol, 30% glycerol, and 40% PBS. For staining, floating sections were permeabilized in 0.1% triton X-100 in PBS (PBST), blocked by 1% BSA in PBST, probed by Iba-1 antibody (Wako, catalog #019-19741, and 1:800 dilution), inactivated endogenous peroxidases in 1% hydrogen peroxide, probed again by a goat anti-rabbit secondary antibody (Southern Biotech, catalog #4030-05, and 1:200 dilution), and developed using a DAB kit (Abeam, catalog #ab103723). All images were taken using a Nikon Eclipse E800 microscope with a 20× objective and analyzed by the Cellprofiler program. Every section was averaged from three brain regions prefrontal, occipital and parietal cortex, and the average of the three sections was used to represent individual animals.
To further determine the relationship between microglia activation, Tat neurotoxicity, and PAM/α7 nAChR, immunohistochemistry staining was performed on microglia in CORT of Wt and iTat mice treated with and without PAM (FIG. 1). […]

α7 nAChR = α7 nAChR expression in brain tissue (Western blotting, immunofluorescence); format: in vivo, mouse
Procedure: FIG. 11A-FIG. 11E show the α7 nAChR expression in the brain, cortical neurons, microglia, and astrocytes in response to Tat and PAM. Western blotting was performed in the same samples of FIG. 1D (FIG. 11A & FIG. 11B, mouse brain tissue, n=6/group, three males, and three females) and FIG. 4A (FIG. 11D & FIG. 11E, primary cells, and n=3/group) using an anti-α7 nAChR antibody. Immunofluorescent staining (FIG. 11C, scale bars 20 μm) of the brain tissues was also performed using an anti-α7 nAChR antibody. p<0.05 was considered significant and marked as *; p<0.01 and p<0.001 were both considered highly significant and marked as ** and ***, respectively.
A RIPA buffer (50 mM Tris.HCl, pH 8.0, 280 mM NaCl, 0.5% NP-40, 1% C24H39NaO4, 0.2 mM EDTA, 2 mM EGTA and 10% glycerol) supplemented with protease inhibitors (Millipore-Sigma, catalog #S8830) and phosphatase inhibitors (Millipore-Sigma, catalog #4906845001) was used to lyse the brain tissues and cultured cells with brief sonication on ice. Protein concentrations of the lysates were determined using a Bio-Rad DC protein assay kit (Bio-Rad, catalog #5000111). […]

COc1cc(OC)c(NC(=O)Nc2cc(C)on2)cc1Cl [PAM, 1-(5-chloro-2,4-dimethoxy-phenyl)-3-(5-methyl-isoxazol-3-yl)-urea]
Number of microglia branches and endpoints [1]: fewer branches and endpoints than PAM-treated Wt mice and DMSO-treated iTat mice
α7 nAChR expression (α7 nAChR; cortex of iTat mice): increased in cortex
α7 nAChR expression (α7 nAChR; hippocampus of iTat mice): only decreased in hippocampus by both Tat expression and PAM treatment
